The nature of this data set: Solubility in water of specified hydrophobic compound or comparative compound. Type of data set: physicochemical. Conditions: water at 25° C. The protocol:
Specifically, a Erlenmeyer flask is charged with 20 g of the test substance and 80 g of water, and shaken at 25° C. for 24 hours. The resultant solution is filtered through a 5 μm membrane filter, to obtain filtrate. The obtained filtrate (5 g) is evaporated to dryness at 100° C. for 3 hours. From the mass of the residual, the content (mass %) of the test substance dissolved in the filtrate relative to the total amount of the filtrate is calculated. The calculated content (mass %) is defined as the solubility in water of the test substance.
Specifically, an Erlenmeyer flask is charged with 100 g of water; while the internal temperature is maintained at 25° C., the test substance is gradually dropped. The dropping is ended when visual observation finds cloudiness in the liquid within the Erlenmeyer flask. The mass (mass %) of the test substance dropped until the end of the dropping relative to the total mass of the liquid within the Erlenmeyer flask is defined as the solubility in water of the test substance.

The compound `CCCCCCCCCCCCCCCCCCCCCCO` [Example 1-Docosanol, 1-Docosanol] registered a Solubility in water of less than 1 mass %. In turn, `CCCCCCCCO` [Example 1-Octanol, 1-Octanol] returned a Solubility in water of less than 1 mass %. As to `CCCCCCCCCCCCCCCCCCCCO` [Example 1-Eicosanol, 1-Eicosanol], the Solubility in water is recorded as less than 1 mass %. With `CCCCCCCCCCCCCCCCCC(=O)OC` [EXCEPARL MS] the figure was less than 1 mass %; with `CCCCCCCCCCCCCCCCCCO` [Stearyl alcohol], less than 1 mass %. `CCCCCCCCCCC(CO)CCCCCCCC` (stereo not drawn) [2-Octyldodecanol]: the Solubility in water is on record as less than 1 mass %.
